# Laboratory results reported in patent US20240368212A1, “SELECTIVE ISONITRILE INHIBITORS OF CYTOCHROME P450 SUBTYPES” (priority 2021, published 2024).
# Entries after “also recorded” stand apart in the source; their conditions may differ. Where two headings read alike, the source gives them in different places.
# How the values were obtained:
# CYP106A2 = CYP106A2 (Priestia megaterium, UniProt Q06069); assay: Optical difference spectrum titration of CYP106A2; assay type: binding, bacterial; conditions: result in words
# Text: FIGS. 3A-3C show the optical difference spectra when various compounds are titrated with CYPs. […] The maximum absorbance was at 430 nm and the trough was at 393 nm. […] The trough was at 418 nm.
# Ligand binding assays. […] All data fitting was accomplished using GraphPad Prism 9.
# CYP17A1 [1] = biological target: T1, CYP17A1 (Homo sapiens, UniProt P05093); assay: Ligand binding assay, UV-visible difference spectra titration; conditions: for spectroscopic evidence of binding to CYP17A1 (heme spectral shift): result in words
# T1 sequence (P05093 1-508): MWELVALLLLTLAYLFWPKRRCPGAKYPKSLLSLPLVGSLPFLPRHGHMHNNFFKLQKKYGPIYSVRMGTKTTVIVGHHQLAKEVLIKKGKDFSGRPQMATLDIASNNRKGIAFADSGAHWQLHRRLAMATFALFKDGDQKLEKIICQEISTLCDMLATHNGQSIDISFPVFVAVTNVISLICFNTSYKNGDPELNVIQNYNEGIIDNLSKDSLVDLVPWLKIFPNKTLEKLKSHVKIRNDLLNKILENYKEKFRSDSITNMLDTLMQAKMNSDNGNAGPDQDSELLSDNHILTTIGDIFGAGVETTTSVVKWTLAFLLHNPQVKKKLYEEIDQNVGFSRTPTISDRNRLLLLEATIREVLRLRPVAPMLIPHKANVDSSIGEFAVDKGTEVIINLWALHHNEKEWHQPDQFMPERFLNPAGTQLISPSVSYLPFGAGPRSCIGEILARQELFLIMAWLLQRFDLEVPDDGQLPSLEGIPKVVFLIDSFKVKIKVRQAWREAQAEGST
# Procedure: Ligand binding assays. (Adapted from DeVore, N M, et al. (2009). Drug Metabolism and Disposition, 37(6), 1319-1327.) Ligand interaction with the heme iron was evaluated by titrating ligands into a cuvette containing purified CYP17A1, CYP2D6, or CYP3A4 and measured using a UV-visible scanning spectrophotometer. […] Ligands dissolved in DMSO were added to the sample cuvette and an equal volume of DMSO to the reference cuvette. Difference spectra were recorded from 300-500 nm after equilibration of enzyme and ligand. Binding to the enzyme was measured as the difference in maximal and minimal absorbance: A387-A419 for pregnanolone and 3-formyl pregnanolone, and A435-A393 for 3-formyl pregnanolone-20-isonitrile with CYP17A1; A434-A414 for 3-formyl pregnanolone-20-isonitrile with CYP3A4 and CYP2D6. […] All data fitting was accomplished using GraphPad Prism 9.
# CYP17A1 [2] = biological target: T2, CYP17A1 (Homo sapiens, UniProt P05093); assay: Inhibition assay, 17α-hydroxylation of progesterone by CYP17A1; assay type: biochemical
# T2 sequence (P05093 24-508 limits assumed): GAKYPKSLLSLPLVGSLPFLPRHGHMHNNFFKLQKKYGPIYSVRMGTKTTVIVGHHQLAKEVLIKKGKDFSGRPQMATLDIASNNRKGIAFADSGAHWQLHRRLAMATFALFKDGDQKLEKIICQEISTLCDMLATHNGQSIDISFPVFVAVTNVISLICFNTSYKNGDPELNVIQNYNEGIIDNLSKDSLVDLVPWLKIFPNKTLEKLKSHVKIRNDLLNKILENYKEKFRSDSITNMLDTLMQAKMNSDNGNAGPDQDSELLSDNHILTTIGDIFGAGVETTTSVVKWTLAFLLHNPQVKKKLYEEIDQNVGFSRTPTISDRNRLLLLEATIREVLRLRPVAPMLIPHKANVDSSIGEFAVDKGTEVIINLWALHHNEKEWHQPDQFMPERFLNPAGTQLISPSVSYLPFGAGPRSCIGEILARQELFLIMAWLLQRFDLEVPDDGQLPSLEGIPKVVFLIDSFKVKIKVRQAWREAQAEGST
# Procedure: (Adapted from DeVore, NM, Scott, EE. (2012). Nature, 482(7383), 116-119.) Metabolic activity of CYP17A1 was evaluated by measuring 17α-hydroxylation of progesterone as detected HPLC with UV detection at 240 nm. A 1:4 ratio of CYP17A1 to recombinant NADPH-cytochrome P450 reductase was mixed and incubated on ice for 20 minutes. […] Reaction vials were warmed to 37° C. for three minutes, then catalysis was initiated by adding NADPH to a final concentration of 1 mM. After 10 minutes, metabolism was quenched by adding 300 μL of 20% trichloroacetic acid and placed on ice. The reaction vials were centrifuged to pellet the precipitated protein, then the supernatant was injected onto a C18 column (Phenomenex, Luna, 50×4.6 mm) for HPLC. The 30-minute HPLC method ran at 0.8 m/min and started with a mobile phase of 60% acetonitrile, 40% water with 0.2% acetic acid for five minutes, increased to 80% acetonitrile over 10 minutes, held at 80% acetonitrile for five minutes, 100% acetonitrile for five minutes, then returned to 60% acetonitrile to prepare for the next sample. Metabolite elution was normalized to β-estradiol as an internal standard. A standard curve of known product concentrations was used to convert normalized area under curve to amount of product produced. […]
# Sequence of CYP106A2 (Q06069 whole entry): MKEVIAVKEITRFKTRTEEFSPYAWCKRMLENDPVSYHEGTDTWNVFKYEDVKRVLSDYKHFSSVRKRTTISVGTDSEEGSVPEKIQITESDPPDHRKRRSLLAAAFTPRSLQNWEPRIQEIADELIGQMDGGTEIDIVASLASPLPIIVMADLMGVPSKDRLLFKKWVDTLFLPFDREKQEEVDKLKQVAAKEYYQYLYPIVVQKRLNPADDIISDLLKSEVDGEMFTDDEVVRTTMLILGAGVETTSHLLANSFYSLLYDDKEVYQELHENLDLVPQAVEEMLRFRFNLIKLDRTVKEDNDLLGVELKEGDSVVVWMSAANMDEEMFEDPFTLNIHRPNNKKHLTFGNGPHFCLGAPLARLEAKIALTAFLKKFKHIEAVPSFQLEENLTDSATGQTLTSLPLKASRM
compound,measurement,setting,value
3β-formyl-(R)-(20-isonitrilo)pregnane [20-(R)-16],spectroscopic evidence of binding to CYP106A2 (Fe—CN—R bond formation),CYP106A2,no evidence for formation of a Fe—CN—R bonded complex
same,spectroscopic evidence of binding to CYP106A2 (Fe—CN—R bond formation),CYP106A2; listed as 3,no evidence of binding
same,spectroscopic evidence of binding to CYP17A1 (heme spectral shift),CYP17A1 [1],binds tightly
[C-]#[N+][C@H](C)[C@H]1CC[C@H]2[C@@H]3CC[C@H]4C[C@@H](OC=O)CC[C@]4(C)[C@H]3CC[C@]12C [Compound 16],IC50,"CYP17A1 [2]; CYP17A1 progesterone hydroxylation, 11.5 μM progesterone",1.3 µM
same,inhibition of CYP17A1 progesterone hydroxylation,"CYP17A1 [2]; result in words, FIG. 5B",inhibited
same,Kd,CYP17A1 [1],< 0.1 µM
same,spectroscopic evidence of binding to CYP17A1 (heme spectral shift),CYP17A1 [1],induced the expected heme spectral shift from 417 to 428 nm; also recorded: bound to CYP17A1; also recorded: bind very tightly
"C[C@]12CC[C@H](O)CC1=CC[C@@H]1[C@@H]2CC[C@]2(C)C(c3cccnc3)=CC[C@@H]12 [abiraterone, reference compound]",Kd,"CYP17A1 [1]; CYP17A1 0.2 μM, tight binding, only estimates, read-out: Kd",< 0.1 µM
